Data from US20040186021A1, “Substituted benzo-nitro-heterocycles” (priority 2001, published 2004).

Tests used:
[1] = logP determination by HPLC (reversed-phase column C 18), EC Directive 79/831 Annex V.A8; type: physicochemical; conditions: for chromatographic logP: reversed-phase HPLC column (C 18), at pH=2; for logP a): acetonitrile, 43° C.
Protocol: LogP values given in Table 1 were determined in accordance with EC Directive 79/831 Annex V.A8 by HPLC (High Performance Liquid Chromatography) using a reversed-phase column (C 18). Temperature: 43° C. (a) Mobile phases for the determination in the acidic range: 0.1% aqueous phosphoric acid, acetonitrile; linear gradient from 10% acetonitrile to 90% acetonitrile—the corresponding measurement results in Table 1 are marked ^a). (b) Mobile phases for the determination in the neutral range: 0.01 molar aqueous phosphate buffer solution, acetonitrile; linear gradient from 10% acetonitrile to 90% acetonitrile—the corresponding measurement results in Table 1 are marked ^b). Calibration was carried out using unbranched alkan-2-ones (having 3 to 16 carbon atoms) with known logP values (determination of the logP values by the retention times using linear interpolation between two successive alkanones).

weeds [2] = experiment: Post-emergence test (Example B); type: in vivo; conditions: test plants of 5-15 cm sprayed, rated after three weeks
Protocol: To produce a suitable preparation of active compound, one part by weight of active compound is mixed with the stated amount of solvent, the stated amount of emulsifier is added and the concentrate is diluted with water to the desired concentration.
Test plants of a height of 5-15 cm are sprayed with the preparation of active compounds such that the particular amounts of active compounds desired are applied per unit area. The concentration of the spray liquor is chosen such that the particular amounts of active compounds desired are applied in 1000 l of water/ha.
After three weeks, the degree of damage to the plants is rated in % damage in comparison to the development of the untreated control.
0%=no effect (like untreated control)

weeds [3] = experiment: Pre-emergence test (Example A); type: in vivo; conditions: soil sprayed 24 hours after sowing, rated after three weeks
Protocol: Pre-Emergence Test [table] To produce a suitable preparation of active compound, one part by weight of active compound is mixed with the stated amount of solvent, the stated amount of emulsifier is added and the concentrate is diluted with water to the desired concentration. Seeds of the test plants are sown in normal soil. After 24 hours, the soil is sprayed with the preparation of active compounds such that the particular amount of active compound desired is applied per unit area. The concentration of active compound in the spray liquor is chosen such that the particular amount of active compound desired is applied in 1000 litres of water per hectare. After three weeks, the degree of damage to the plants is rated in % damage in comparison to the development of untreated control. The figures denote: 0%=no effect (like untreated control) 100%=total destruction

[4] = Table 1; a) acidic range: 0.1% aqueous phosphoric acid
[5] = Table 2, compounds of formula (II); a) acidic range: 0.1% aqueous phosphoric acid

Compound | action against weeds (degree of damage to the plants) (weeds [2]) | action against weeds (degree of damage to the plants) (weeds [3]) | logP a) [1, 4] | also measured
O=c1[nH]c2cc(-n3c(=O)cc(C(F)(F)F)[nH]c3=O)c(F)cc2s1 [3-(6-fluoro-2,3-dihydro-2-oxo-1,3-benzothiazol-5-yl)-6-trifluoromethyl-2,4(1H,3H)-pyrimidinedione] | – | – | – | chromatographic logP [1]: 1.48
CCOC(=O)CN1C(=O)COc2ccc(-n3c(=O)cc(C(F)(F)F)n(N)c3=O)cc21 [Example 1, ethyl 6-(3-amino-3,6-dihydro-2,6-dioxo-4-trifluoromethyl-1 (2H)-pyrimidynyl)-2,3-dihydro-3-oxo-4H-1,4-benzoxazine-4-acetate] | very strong action against weeds | very strong action against weeds | – | chromatographic logP [1]: 1.9
CCOC(=O)n1c(=O)sc2cc(F)c(-n3c(=O)cc(C(F)(F)F)n(N)c3=O)cc21 [Example 2, ethyl 5-(3-amino-3,6-dihydro-2,6-dioxo-4-trifluoromethyl-1(2H)-pyrimidynyl)-6-fluoro-2-oxo-3(2H)-benzothiazole carboxylate] | – | – | – | chromatographic logP [1]: 2.44
CS(=O)(=O)n1c(=O)sc2cc(F)c(-n3c(=O)cc(C(F)(F)F)n(N)c3=O)cc21 [Example 3, 1-amino-3-(6-fluoro-2,3-dihydro-3-methylsulphonyl-2-oxo-5-benzothiazolyl)-6-trifluoromethyl-2,4(1H,3H)-pyrimidinedione] | – | – | – | chromatographic logP [1]: 2.16
N#CCn1c(=O)sc2cc(F)c(-n3c(=O)cc(C(F)(F)F)n(N)c3=O)cc21 [Example 4] | – | – | 1.97^a) | –
N#CCN1C(=O)COc2cc(F)c(-n3c(=O)cc(C(F)(F)F)n(N)c3=O)cc21 [Example 5] | very strong action against weeds | very strong action against weeds | 1.83^a) | –
N#CCN1C(=O)COc2ccc(-n3c(=O)cc(C(F)(F)F)n(N)c3=O)cc21 [Example 6] | very strong action against weeds | very strong action against weeds | 1.57^a) | –
COC(=O)CN1C(=O)COc2cc(F)c(-n3c(=O)cc(C(F)(F)F)n(N)c3=O)cc21 [Example 7] | very strong action against weeds | very strong action against weeds | 1.90^a) | –
CCOC(=O)CN1C(=O)COc2cc(F)c(-n3c(=O)cc(C(F)(F)F)n(N)c3=O)cc21 [Example 8] | very strong action against weeds | very strong action against weeds | 2.14^a) | –
CC(C)(C)OC(=O)CN1C(=O)COc2cc(F)c(-n3c(=O)cc(C(F)(F)F)n(N)c3=O)cc21 [Example 9] | very strong action against weeds | very strong action against weeds | 2.60^a) | –
CC(C)OC(=O)CN1C(=O)COc2cc(F)c(-n3c(=O)cc(C(F)(F)F)n(N)c3=O)cc21 [Example 10] | very strong action against weeds | very strong action against weeds | 2.38^a) | –
COC(=O)CN1C(=O)COc2ccc(-n3c(=O)cc(C(F)(F)F)n(N)c3=O)cc21 [Example 11] | very strong action against weeds | very strong action against weeds | – | –
CC(C)OC(=O)CN1C(=O)COc2ccc(-n3c(=O)cc(C(F)(F)F)n(N)c3=O)cc21 [Example 12] | very strong action against weeds | very strong action against weeds | 2.14^a) | –
CC(C)(C)OC(=O)CN1C(=O)COc2ccc(-n3c(=O)cc(C(F)(F)F)n(N)c3=O)cc21 [Example 13] | – | – | 2.37^a) | –
CC(=O)n1c(=O)sc2cc(F)c(-n3c(=O)cc(C(F)(F)F)n(N)c3=O)cc21 [Example 14] | – | – | 2.36^a) | –
COC(=O)C=C(CCl)n1c(=O)sc2cc(F)c(-n3c(=O)cc(C(F)(F)F)n(N)c3=O)cc21 [Example 22] | – | – | 2.46^a) | –
CC(C)COC(=O)n1c(=O)sc2cc(F)c(-n3c(=O)cc(C(F)(F)F)n(N)c3=O)cc21 [Example 23] | – | – | 3.17^a) | –
CCOC(=O)C=C(n1c(=O)sc2cc(F)c(-n3c(=O)cc(C(F)(F)F)n(N)c3=O)cc21)C(F)(F)F [Example 24] | – | – | 2.98^a) | –
CCOC(=O)C=CCn1c(=O)sc2cc(F)c(-n3c(=O)cc(C(F)(F)F)n(N)c3=O)cc21 [Example 25] | – | – | 2.51^a) | –
N#Cn1c(=O)sc2cc(F)c(-n3c(=O)cc(C(F)(F)F)n(N)c3=O)cc21 [Example 30] | – | – | 2.19^a) | –
Nn1c(C(F)(F)F)cc(=O)n(-c2cc3[nH]c(=O)sc3cc2F)c1=O [II-1, 1-amino-3-(6-fluoro-2,3-dihydro-2-oxo-1,3-benzothiazol-5-yl)-6-trifluoromethyl-2,4(1H,3H)-pyrimidinedione] | – | – | – | chromatographic logP [1]: 1.66
Nn1c(C(F)(F)F)cc(=O)n(-c2ccc3c(c2)NC(=O)CO3)c1=O [II-2] | – | – | – | logP a) [1, 5]: logP = 1.22^a)
Nn1c(C(F)(F)F)cc(=O)n(-c2cc3c(cc2F)OCC(=O)N3)c1=O [II-3] | – | – | – | logP a) [1, 5]: logP = 1.57^a)
